According to US7445909B2, “Method for detecting reactive metabolites using a combination of glutathione and a stable isotopic derivative of glutathione and mass spectroscopy-based pattern recognition” (Janssen Phamaceutica N.V., priority 2004, dated 2008):

What was measured:
[1] = tested on: human microsomal proteins; test: Stable isotope (GSH/GSX) trapping of reactive metabolites in microsomal incubation, LC-MS/MS neutral loss scanning of 129 Da; format: in vitro ADME; settings: 10 μM test compound, 1 mg/mL human microsomal proteins, 1 mM GSH and GSX (1:1), NADPH generating system, 60 min, 37° C., pH 7.4
Protocol: All microsomal incubations described herein were performed at 37° C. in a water bath. […] Alternatively, the reaction mixtures were subjected to liquid-liquid extractions to recover the metabolites from supernatants.
MS analyses were performed on a Micromass (Manchester, UK) Quattro Micro triple quadrupole mass spectrometer.
For complete profiling of reactive metabolites, samples were first subjected to chromatographic separations with an Agilent 1100 HPLC system with an auto-sampler (Agilent Technologies, Palo Alto, Calif.), and eluents were introduced to the Quattro Micro triple quadrupole mass spectrometer operated in the neutral loss scanning mode. An Agilent Zorbax SB C18 column (2.1×50 mm) was used for the chromatographic separation. […] At 7 min, the column was flushed with 95% acetonitrile for 2 min before re-equilibration at initial conditions. […] Data were processed using the Masslynx version 4.0 software from Micromass.

[2] = tested on: human microsomal proteins; test: Stable isotope (GSH/GSX) trapping of reactive metabolites in microsomal incubation, FIA-MS/MS neutral loss scanning of 129 Da; format: in vitro ADME; settings: 10 μM test compound, 1 mg/mL human microsomal proteins, 1 mM GSH and GSX (1:1), 60 min, 37° C.; flow injection FIA-MS/MS, analysis within 30 sec
Protocol: All microsomal incubations described herein were performed at 37° C. in a water bath. The test compound (or drug candidate) was mixed with human microsomal proteins in 50 mM potassium phosphate buffer (pH 7.4) supplemented with GSH and GSX that were pre-mixed at an equal molar ratio of 1:1. Reaction mixtures were then warmed at 37° C. for 5 min. The reactions were initiated by the addition of a NADPH generating system to yield a final volume of 1000 μL. The final reaction mixtures contained 10 μM test compounds, 1 mg/mL microsomal proteins, 1 mM GSH and GSX, 1.3 mM NADP^+, 3.3 mM glucose-6-phosphate, 0.4 U/ml glucose-6-phosphate dehydrogenase, 3.3 mM magnesium chloride. After a 60 min incubation, the reactions were terminated by the addition of 150 μL of trichloroacetic acid (10%). The samples were centrifuged at 10,000 g for 15 min at 4° C. to pellet the precipitated protein, and the supernatants were subjected to solid-phase extractions. […]
For rapid screening of reactive metabolites (as described in Example 11), cleaned samples were directly injected to the mass spectrometer that was operated in the neutral scanning mode. […] After a glutathione conjugate was detected, CID MS/MS spectrum was subsequently acquired to determine the structure of the glutathione conjugate. […]

detection of reactive metabolites (characteristic isotopic doublet of GSH/GSX adducts in neutral loss mass spectrum) [1] | SMILES | detection of reactive metabolite (characteristic isotopic doublet of GSH/GSX adducts in neutral loss mass spectrum) [2]
two reactive metabolites were co-eluted | O=C(O)Cc1ccccc1Nc1c(Cl)cccc1Cl [Diclofenac] | –
no reactive metabolites were formed | NC(=O)OCC(COC(N)=O)c1ccccc1 [Felbamate] | –

SMILES | detection of reactive metabolites (characteristic isotopic doublet of GSH/GSX adducts in neutral loss mass spectrum) [1] | detection of reactive metabolite (characteristic isotopic doublet of GSH/GSX adducts in neutral loss mass spectrum) [2]
C[C@]12CC[C@@H]3c4ccc(O)c(O)c4CC[C@H]3[C@@H]1CCC2=O [4-Hydroxyestrone] | only one component at a retention time of 5.11 min displayed characteristic doublet | the reactive metabolite was detected
